From patent US11560384B2, “Benzonorbornadiene derivatives and reactions thereof” (University of Utah Research Foundation, priority 2017, dated 2023)
Values joined by “and” are separate entries in the source; they are usually repeats but may differ in a detail not shown here. Equal values may be shown once. “Also recorded” adds a separate entry of the source.

Columns and labels:
[1] = Second-order reaction kinetics with tetrazine DPTz (UV-Vis absorbance at 525 nm); format: physicochemical; details: for Second-order rate constant (k2): with DPTz, 37° C., λabs = 525 nm
Description: (§1) UV-VIS photospectrometic kinetic measurements were performed on a BioTek Synergy HT Microplate Reader (BioTek, USA) in a 96-well plate formate. In further detail, for analysis of reaction kinetics in DMSO and DMSO/H2O (9:1, v/v), stock solutions of benzonorbornadiene derivatives 1-3 (60 mM or 12.5 mM) and tetrazine (15 mM or 2.5 mM) in DMSO were prepared. Final solutions containing tetrazine (2 mM or 0.25 mM) and 1-3 (20 mM, 30 mM, 40 mM and 50 mM or 2.5 mM, 3.75 mM, 5 mM, 6.25 mM) were prepared in 96-well plates and thoroughly mixed at 37° C. for UV-Vis measurements. For analysis of reaction kinetics in DMSO/PBS (3:2, v/v), final solutions containing tetrazine (0.05 mM) and 1-2 (0.5 mM), tetrazine alone (0.05 mM) were prepared in 96-well plates and thoroughly mixed at 37° C. for UV-Vis measurements. The reactions were monitored at 525 nm, which is a local absorbance maximum of tetrazine. All kinetic experiments were run in triplicates. Pseudo-first order curve fitting was performed with Origin 8.0 software using the exponential formula: y=A1×e^kx+y0.

[2] = Second-order reaction kinetics with tetrazine PEG-Tz (UV-Vis absorbance at 525 nm); format: physicochemical; details: 37° C., λabs = 525 nm
Description: as §1

A549 lung cancer cells = assay: Cell proliferation / cytotoxicity assay (CellTiter-Glo); format: cell-based; details: compound alone
Description: Cell proliferation assays were performed on an Envision 2104 Multilabel Reader (PerkinElmer, USA). Specifically, A549 lung cancer cells (ATCC, USA) were maintained in a humidified CO2 (5%) incubator at 37° C. in DMEM (Thermo Fisher, USA) supplemented with 10% fetal bovine serum in the presence of 1% Penicillin-Streptomycin-Glutamine (Thermo Fisher, USA) and 0.2% Normocin (InvivoGen, USA). The cells were plated in 96-well TC treated plates (PerkinElmer, USA) at a 5000 cells/well density 24 h prior to the experiment. Prodrug 5, compound 2 (2 mM in DMSO) and PEG-Tz (40 mM in DMSO) were serially diluted in pre-warmed culture medium. Prodrug 5 and compound 2 are in a series of final concentrations ranging from 0.001 to 10 μM with 200 μM, 100 μM, 50 μM, 25 μM PEG-Tz before the experiment and added to the wells (100 μL final volume per well). Doxorubicin was used as the positive control with same series of concentrations ranging from 0.001 to 10 μM. […] After 72 h incubation at 37° C., cell proliferation was assessed by a CellTiter-Glo® viability assay. Lyophilized CellTiter Glo Substrate (Promega, USA) was dissolved in the CellTiter Glo Buffer to get CellTiter-Glo® Reagent, and from which 100 μL was added to each well. After 15 min incubation at 25° C., the medium was gently measured with Envision 2104 Multilabel Reader (PerkinElmer, USA) to get the luminescent based on quantitation of the ATP present, an indicator of metabolically active cells. The proliferation assay was performed in triplicate (n=3). EC50 values were derived from the normalized cell growth and corresponding sigmoidal curves were fitted and generated with Origin 8.0.

[3] = Stability in human serum (PBS:Serum 1:1), HPLC; format: in vitro ADME; details: 50 μM in PBS:Serum (1:1), 37° C., 5 up to 48 h, 2 up to 7 days
Description: Stability studies of prodrug 5 in PBS:Serum were performed as follows. Stock solutions of prodrug 5 (2.5 mM) in DMSO were prepared. Aliquots of 5 stock solution (20 μL), 0.01 M PBS (480 μL) and human serum (500 μL) (Sigma-Aldrich, USA) were combined to give final concentrations of 50 μM for the 5 in PBS: Serum (1:1, v/v). The sample was thoroughly mixed and incubated at 37° C. in the dark and subsequently a 50 μL aliquot of the sample was taken at indicated time points (5 min, 6 h, 24 h and 48 h) and quenched by 200 μL ice cold acetonitrile, followed by centrifugation at 13300 rpm for 5 min. The supernatant was injected and analyzed by HPLC at 480 nm.
Stability studies of compound 2 were performed as follows. Stock solutions of 2 (2.5 mM) in DMSO were prepared. Aliquots of 2 stock solution (20 μL), 0.01 M PBS (480 μL) and human serum (500 μL) (Sigma-Aldrich, USA) were combined to give final concentrations of 50 μM for the 2 in PBS: Serum (1:1, v/v). The sample was thoroughly mixed and incubated at 37° C. in the dark and subsequently a 50 μL aliquot of the sample was taken at indicated time points (5 min, 6 h, 24 h, 48 h, 72 h and 7 days) and quenched by 200 μL ice cold acetonitrile, followed by centrifugation at 13300 rpm for 5 min. The supernatant was injected and analyzed by HPLC at 317 nm.

7-oxo-BNBD [compound 6, reference compound]
Second-order rate constant (k2) ([1]; DMSO): 0.176 M⁻¹ s⁻¹ and 0.176 ± 0.004 M⁻¹ s⁻¹

O=C(Nc1ccc([N+](=O)[O-])cc1)OCC12C=CC(O1)c1ccccc12 (stereo not drawn) [compound 1]
Decrease of reaction rate with DPTz relative to 7-oxo-BNBD (6) ([1]; DMSO): ~12 fold
Second-order rate constant (k2) ([1]; 90% DMSO/H2O): 0.028 M⁻¹ s⁻¹ and 0.028 ± 0.0003 M⁻¹ s⁻¹
Second-order rate constant (k2) ([1]; DMSO): 0.015 M⁻¹ s⁻¹ and 0.015 ± 0.008 M⁻¹ s⁻¹
Second-order rate constant (k2) ([2]; 60% DMSO/PBS (3:2)): 0.190 M⁻¹ s⁻¹ and 0.190 ± 0.029 M⁻¹ s⁻¹
Second-order rate constant (k2) ([2]; 90% DMSO/H2O): 0.058 ± 0.0003 M⁻¹ s⁻¹

COc1cccc2c1C(=O)c1c(O)c3c(c(O)c1C2=O)C[C@@](O)(C(=O)CO)C[C@@H]3O[C@H]1C[C@H](N)[C@H](O)[C@H](C)O1 [Doxorubicin, reference compound]
EC50 (A549 lung cancer cells; Homo sapiens, A549): 88 nM
EC50 (A549 lung cancer cells; Homo sapiens, A549, 72 hour incubation at 37° C.): 88 ± 31 nM

COCCOCCOCCNC(=O)c1ccc(-c2nncnn2)cc1 [PEG-Tz, N-(2-(2-(2-methoxyethoxy)ethoxy)ethyl)-4-(1,2,4,5-tetrazin-3-yl) benzamide]
EC50 (A549 lung cancer cells; 72 hour incubation at 37° C.): > 200000 nM
Cytotoxicity in A549 cells (A549 lung cancer cells; tested concentration range (PEG-Tz 0.02 to 200 μM; 5 0.001 to 10 μM)): no obvious toxicity; also recorded: no cytotoxicity

CC(C)(C)OC(=O)N1C2C=CC1(COC(=O)Nc1ccc([N+](=O)[O-])cc1)c1ccccc12 (stereo not drawn) [compound 3, tert-butyl 1-((((4-nitrophenyl)carbamoyl)oxy)methyl)-1,4-dihydro-1,4-epiminonaphthalene-9-carboxylate]
Second-order rate constant (k2) ([1]; 90% DMSO/H2O): 0.0084 M⁻¹ s⁻¹ and 0.0084 ± 0.0016 M⁻¹ s⁻¹
Second-order rate constant (k2) ([1]; DMSO): 0.0044 M⁻¹ s⁻¹ and 0.0044 ± 0.00009 M⁻¹ s⁻¹

CC(=O)N1C2C=CC1(COC(=O)Nc1ccc([N+](=O)[O-])cc1)c1ccccc12 (stereo not drawn) [compound 2]
Second-order rate constant (k2) ([1]; 90% DMSO/H2O): 0.017 M⁻¹ s⁻¹ and 0.017 ± 0.002 M⁻¹ s⁻¹
Second-order rate constant (k2) ([1]; DMSO): 0.010 M⁻¹ s⁻¹ and 0.010 ± 0.0004 M⁻¹ s⁻¹
Stability in human serum [3]: completely stable until the end of the analysis at one week
Unspecific payload release in human serum [3]: No free p-Nitroaniline or p-Nitroaniline-containing side products were observed; also recorded: no traces of pNA were formed; also recorded: No background liberation of reporter molecules was observed
Second-order rate constant (k2) ([2]; 60% DMSO/PBS (3:2)): 0.135 M⁻¹ s⁻¹ and 0.135 ± 0.010 M⁻¹ s⁻¹
Second-order rate constant (k2) ([2]; 90% DMSO/H2O): 0.020 ± 0.0007 M⁻¹ s⁻¹
